Test results published in patent US20080045506A1 (GLAXO GROUP LIMITED, priority 2004, published 2008).
Where a name gives a salt, the structure may show the parent alone.

Biological target: T1, histamine H3 receptor (Homo sapiens, UniProt Q9Y5N1)
T1 construct: expressed in transfected cells; host or cells: CHO K1 cells (pSwitch/pGene GeneSwitch system, mifepristone-induced), clone 3H3; membranes
Assay: Histamine H3 functional antagonist assay (method B)
Assay type: biochemical
Details: [35S]-GTPγS SPA, membrane prepared from cultured H3 cells, histamine at EC80, averages of a number of experiments, read-out: functional pKi (fpKi), antagonism (converted)
Description: A membrane preparation containing histamine H3 receptors may be prepared in accordance with the following procedures:
(i) Generation of Histamine H3 Cell Line
DNA encoding the human histamine H3 gene (Huvar, A. et al. (1999) Mol. Pharmacol. 55(6), 1101-1107) was cloned into a holding vector, pcDNA3.1 TOPO (InVitrogen) and its cDNA was isolated from this vector by restriction digestion of plasmid DNA with the enzymes BamH1 and Not-1 and ligated into the inducible expression vector pGene (InVitrogen) digested with the same enzymes. The GeneSwitch™ system (a system where in transgene expression is switched off in the absence of an inducer and switched on in the presence of an inducer) was performed as described in U.S. Pat. Nos. 5,364,791; 5,874,534; and 5,935,934. Ligated DNA was transformed into competent DH5α E. coli host bacterial cells and plated onto Luria Broth (LB) agar containing Zeocin™ (an antibiotic which allows the selection of cells expressing the sh ble gene which is present on pGene and pSwitch) at 50 μg ml^−1. Colonies containing the re-ligated plasmid were identified by restriction analysis. DNA for transfection into mammalian cells was prepared from 250 ml cultures of the host bacterium containing the pGeneH3 plasmid and isolated using a DNA preparation kit (Qiagen Midi-Prep) as per manufacturers guidelines (Qiagen).
CHO K1 cells previously transfected with the pSwitch regulatory plasmid (InVitrogen) were seeded at 2×10e6 cells per T75 flask in Complete Medium, containing Hams F12 (GIBCOBRL, Life Technologies) medium supplemented with 10% v/v dialysed foetal bovine serum, L-glutamine, and hygromycin (100 μg ml^−1), 24 hours prior to use. Plasmid DNA was transfected into the cells using Lipofectamine plus according to the manufacturers guidelines (InVitrogen). 48 hours post transfection cells were placed into complete medium supplemented with 500 μg ml^−1 Zeocin™.
10-14 days post selection 10 nM Mifepristone (InVitrogen), was added to the culture medium to induce the expression of the receptor. 18 hours post induction cells were detached from the flask using ethylenediamine tetra-acetic acid (EDTA; 1:5000; InVitrogen), following several washes with phosphate buffered saline pH 7.4 and resuspended in Sorting Medium containing Minimum Essential Medium (MEM), without phenol red, and supplemented with Earles salts and 3% Foetal Clone II (Hyclone). Approximately 1×10e7 cells were examined for receptor expression by staining with a rabbit polyclonal antibody, 4a, raised against the N-terminal domain of the histamine H3 receptor, incubated on ice for 60 minutes, followed by two washes in sorting medium. Receptor bound antibody was detected by incubation of the cells for 60 minutes on ice with a goat anti rabbit antibody, conjugated with Alexa 488 fluorescence marker (Molecular Probes). Following two further washes with Sorting Medium, cells were filtered through a 50 μm Filcon™ (BD Biosciences) and then analysed on a FACS Vantage SE Flow Cytometer fitted with an Automatic Cell Deposition Unit. Control cells were non-induced cells treated in a similar manner. Positively stained cells were sorted as single cells into 96-well plates, containing Complete Medium containing 500 μg ml^−1 Zeocin™ and allowed to expand before reanalysis for receptor expression via antibody and ligand binding studies. One clone, 3H3, was selected for membrane preparation.
(ii) Membrane Preparation from Cultured Cells
All steps of the protocol are carried out at 4° C. and with pre-cooled reagents. The cell pellet is resuspended in 10 volumes of homogenisation buffer (50 mM N-2-hydroxyethylpiperazine-N′-2-ethanesulfonic acid (HEPES), 1 mM ethylenediamine tetra-acetic acid (EDTA), pH 7.4 with KOH, supplemented with 10e-6M leupeptin (acetyl-leucyl-leucyl-arginal; Sigma L2884), 25 μg/ml bacitracin (Sigma B0125), 1 mM phenylmethylsulfonyl fluoride (PMSF) and 2×10e-6M pepstain A (Sigma)). […]

T1 sequence (Q9Y5N1 whole entry): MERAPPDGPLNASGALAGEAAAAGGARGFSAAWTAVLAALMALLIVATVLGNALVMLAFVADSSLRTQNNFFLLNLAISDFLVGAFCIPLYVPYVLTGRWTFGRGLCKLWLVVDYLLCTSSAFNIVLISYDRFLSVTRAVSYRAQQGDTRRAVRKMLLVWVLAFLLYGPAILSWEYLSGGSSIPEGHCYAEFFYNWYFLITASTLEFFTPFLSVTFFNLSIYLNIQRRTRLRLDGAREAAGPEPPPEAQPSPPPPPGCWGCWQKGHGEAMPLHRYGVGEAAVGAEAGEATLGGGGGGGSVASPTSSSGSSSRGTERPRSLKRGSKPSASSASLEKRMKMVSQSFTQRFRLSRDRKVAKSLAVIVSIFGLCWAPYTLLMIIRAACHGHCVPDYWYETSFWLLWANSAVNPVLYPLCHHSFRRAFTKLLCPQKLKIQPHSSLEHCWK

| SMILES | Ki |
| --- | --- |
| Cc1noc(-c2ccc(N3CCC(C(=O)N4CCCN(C5CCC5)CC4)C3)cc2)n1 (racemic) [Example E18, (R,S)-1-Cyclobutyl-4-({1-[4-(3-methyl-1,2,4-oxadiazol-5-yl)phenyl]-3-pyrrolidinyl}carbonyl)hexahydro-1H-1,4-diazepine] | ≤ 0.316 nM |
| Cc1noc(-c2ccc(N3CCC(C(=O)N4CCCN(C5CCC5)CC4)C3)c(F)c2)n1 (racemic) [Example E20, (R,S)-1-Cyclobutyl-4-({1-[2-fluoro-4-(3-methyl-1,2,4-oxadiazol-5-yl)phenyl]-3-pyrrolidinyl}carbonyl)hexahydro-1H-1,4-diazepine] | ≤ 0.316 nM |
| CC(=O)c1ccc(N2CCC(C(=O)N3CCCN(C4CCC4)CC3)C2)cc1 (racemic) [Example E21, (R,S)-1-(4-{3-[(4-Cyclobutylhexahydro-1H-1,4-diazepin-1-yl)carbonyl]-1-pyrrolidinyl}phenyl)ethanone] | ≤ 0.316 nM |
| Cc1noc(-c2ccc(N3CC[C@H](C(=O)N4CCCN(C5CCC5)CC4)C3)cc2)n1 (single isomer, unassigned) [Example E18B, hydrochloride] | ≤ 0.316 nM |
| CC(=O)c1ccc(N2CC[C@@H](C(=O)N3CCCN(C4CCC4)CC3)C2)cc1 (single isomer, unassigned) [Example E21A, hydrochloride] | < 10 nM |
| CC(=O)c1ccc(N2CC[C@H](C(=O)N3CCCN(C4CCC4)CC3)C2)cc1 (single isomer, unassigned) [Example E21B, hydrochloride] | ≤ 0.316 nM |
| CC(=O)c1ccc(N2CC[C@H](C(=O)N3CCN(C(C)C)CC3)C2)cc1 [Example E2, 1-[4-((3S)-3-{[4-(1-Methylethyl)-1-piperazinyl]carbonyl}-1-pyrrolidinyl)phenyl]ethanone] | ≤ 0.316 nM |
| Cc1noc(-c2ccc(N3CC[C@H](C(=O)N4CCN(C(C)C)CC4)C3)cc2)n1 [Example E3, 1-(1-Methylethyl)-4-({(3S)-1-[4-(3-methyl-1,2,4-oxadiazol-5-yl)phenyl]-3-pyrrolidinyl}carbonyl)piperazine] | ≤ 0.316 nM |
| CCC(CC)N1CCN(C(=O)[C@H]2CCN(c3ccc(C(C)=O)cc3)C2)CC1 [Example E8, 1-[4-((3S)-3-{[4-(1-Ethylpropyl)-1-piperazinyl]carbonyl}-1-pyrrolidinyl)phenyl]ethanone] | ≤ 0.316 nM |
| CC(=O)c1ccc(N2CC[C@H](C(=O)N3CCCN(CC4CC4)CC3)C2)cc1 [Example E10, 1-[4-((3S)-3-{[4-(Cyclopropylmethyl)hexahydro-1H-1,4-diazepin-1-yl]carbonyl}-1-pyrrolidinyl)phenyl]ethanone] | ≤ 0.316 nM |
| Cc1noc(-c2ccc(N3CC[C@H](C(=O)N4CCCN(CC5CC5)CC4)C3)cc2)n1 [Example E11, 1-(Cyclopropylmethyl)-4-({(3S)-1-[4-(3-methyl-1,2,4-oxadiazol-5-yl)phenyl]-3-pyrrolidinyl}carbonyl)hexahydro-1H-1,4-diazepine] | ≤ 0.316 nM |
| O=C([C@H]1CCN(c2ccc(C(F)(F)F)nc2)C1)N1CCN(C2CCC2)CC1 [Example E12, 1-Cyclobutyl-4-({(3S)-1-[6-(trifluoromethyl)-3-pyridinyl]-3-pyrrolidinyl}carbonyl)piperazine] | ≤ 0.316 nM |
| Cc1noc(-c2ccc(N3CC[C@H](C(=O)N4CCN(C5CCC5)CC4)C3)cc2)n1 [Example E13, 1-Cyclobutyl-4-({(3S)-1-[4-(3-methyl-1,2,4-oxadiazol-5-yl)phenyl]-3-pyrrolidinyl}carbonyl)piperazine] | ≤ 0.316 nM |
| Cc1noc(-c2ccc(N3CC[C@H](C(=O)N4CCN(C(C)C)CC4)C3)cc2F)n1 [Example E24, 1-({(3S)-1-[3-Fluoro-4-(3-methyl-1,2,4-oxadiazol-5-yl)phenyl]-3-pyrrolidinyl}carbonyl)-4-(1-methylethyl)piperazine] | ≤ 0.316 nM |
| Cc1noc(-c2ccc(N3CC[C@H](C(=O)N4CCCN(C(C)C)CC4)C3)cc2)n1 [Example E28, 1-(1-Methylethyl)-4-({(3S)-1-[4-(3-methyl-1,2,4-oxadiazol-5-yl)phenyl]-3-pyrrolidinyl}carbonyl)hexahydro-1H-1,4-diazepine] | ≤ 0.316 nM |
| Cc1noc(-c2ccc(N3CC[C@H](C(=O)N4CCCN(C(C)C)CC4)C3)cc2F)n1 [Example E29, 1-({(3S)-1-[3-Fluoro-4-(3-methyl-1,2,4-oxadiazol-5-yl)phenyl]-3-pyrrolidinyl}carbonyl)-4-(1-methylethyl)hexahydro-1H-1,4-diazepine hydrochloride] | ≤ 0.316 nM |

Other lines, results leading:

| Ki | SMILES |
| --- | --- |
| < 10 nM | Cc1ccc2cc(N3CCC(C(=O)N4CCCN(C5CCC5)CC4)C3)ccc2n1 (racemic) [Example E19, (R,S)-6-{3-[(4-Cyclobutylhexahydro-1H-1,4-diazepin-1-yl)carbonyl]-1-pyrrolidinyl}-2-methylquinoline] |
| ≤ 0.316 nM | Cc1noc(-c2ccc(N3CC[C@@H](C(=O)N4CCCN(C5CCC5)CC4)C3)cc2)n1 (single isomer, unassigned) [Example E18A, hydrochloride] |
| < 10 nM | Cc1ccc2cc(N3CC[C@@H](C(=O)N4CCCN(C5CCC5)CC4)C3)ccc2n1 (single isomer, unassigned) [Example E19A, hydrochloride] |
| ≤ 0.316 nM | Cc1ccc2cc(N3CC[C@H](C(=O)N4CCCN(C5CCC5)CC4)C3)ccc2n1 (single isomer, unassigned) [Example E19B, hydrochloride] |
| < 10 nM | Cc1noc(-c2ccc(N3CC[C@@H](C(=O)N4CCCN(C5CCC5)CC4)C3)c(F)c2)n1 (single isomer, unassigned) [Example E20A, hydrochloride] |
| ≤ 0.316 nM | Cc1noc(-c2ccc(N3CC[C@H](C(=O)N4CCCN(C5CCC5)CC4)C3)c(F)c2)n1 (single isomer, unassigned) [Example E20B, hydrochloride] |
| ≤ 0.316 nM | CC(=O)c1ccc(N2CC[C@H](C(=O)N3CCN(C(C)C)[C@@H](C)C3)C2)cc1 [Example E5, 1-[4-((3S)-3-{[(3S)-3-Methyl-4-(1-methylethyl)-1-piperazinyl]carbonyl}-1-pyrrolidinyl)phenyl]ethanone] |
| ≤ 0.316 nM | Cc1noc(-c2ccc(N3CC[C@H](C(=O)N4CCN(C(C)C)[C@@H](C)C4)C3)cc2)n1 [Example E6, (2S)-2-Methyl-1-(1-methylethyl)-4-({(3S)-1-[4-(3-methyl-1,2,4-oxadiazol-5-yl)phenyl]-3-pyrrolidinyl}carbonyl)piperazine] |
| ≤ 0.316 nM | CCC(CC)N1CCN(C(=O)[C@H]2CCN(c3ccc(-c4nc(C)no4)cc3)C2)CC1 [Example E9, 1-(1-Ethylpropyl)-4-({(3S)-1-[4-(3-methyl-1,2,4-oxadiazol-5-yl)phenyl]-3-pyrrolidinyl}carbonyl)piperazine] |
| ≤ 0.316 nM | Cc1noc(-c2ccc(N3CC[C@H](C(=O)N4CCN(C(C)C)CC4)C3)c(F)c2)n1 [Example E25, 1-({(3S)-1-[2-Fluoro-4-(3-methyl-1,2,4-oxadiazol-5-yl)phenyl]-3-pyrrolidinyl}carbonyl)-4-(1-methylethyl)piperazine] |
| ≤ 0.316 nM | CC(=O)c1ccc(N2CC[C@H](C(=O)N3CCCN(C(C)C)CC3)C2)cc1 [Example E27, 1-[4-((3S)-3-{[4-(1-Methylethyl)hexahydro-1H-1,4-diazepin-1-yl]carbonyl}-1-pyrrolidinyl)phenyl]ethanone] |
| ≤ 0.316 nM | Cc1nnc(-c2ccc(N3CC[C@H](C(=O)N4CCN(C(C)C)CC4)C3)cc2)o1 [Example E30, 1-(1-Methylethyl)-4-({(3S)-1-[4-(5-methyl-1,3,4-oxadiazol-2-yl)phenyl]-3-pyrrolidinyl}carbonyl)piperazine] |
